Experimental data from ChEMBL document CHEMBL1158156, “Structure-based design, synthesis, and biological evaluation of 1,1-dioxoisothiazole and benzo[b]thiophene-1,1-dioxide derivatives as novel inhibitors of hepatitis C virus NS5B polymerase” (Bioorg Med Chem Lett, 2008).
pEC50, pIC50: −log10 of the molar value.

What was measured:
Hepatitis C virus [1] = test: Antiviral activity against HCV 1b infected in human Huh7/C24 cells after 72 hrs by replicon assay; assay type: functional, organism-based, Hepacivirus hominis; conditions: genotype 1b, Huh-7, 72 h
Hepatitis C virus [2] = test: Inhibition of HCV 1b NS5B polymerase; parameters: species or system Hepatitis C virus subtype 1b
[3] = Metabolic stability in human liver microsomes assessed as half life
[4] = Cytotoxicity against human Huh7/C24 cells after 72 hrs; assay type: cell-based, Huh-7
[5] = Apparent permeability from apical to basolateral side in human Caco-2 cells; assay type: ADME, cell-based
[6] = Apparent permeability from basolateral to apical side in human Caco-2 cells; assay type: ADME, cell-based
[7] = AUC at 24 hrs in cynomolgus monkey at 1 mg/kg, po administered as single dose; assay type: ADME, organism-based, Macaca fascicularis; parameters: time < 24 hr, dose 1 mg/kg, route oral; conditions: plasma
[8] = Plasma concentration in cynomolgus monkey at 1 mg/kg, po administered as single dose after 12 hrs; assay type: ADME, organism-based, Macaca fascicularis; parameters: dose 1 mg/kg, route oral
[9] = Ratio of permeability from basolateral to apical over apical to basolateral side in human Caco-2 cells
[10] = Oral bioavailability in cynomolgus monkey at 1 mg/kg administered as single dose; assay type: ADME, organism-based, Macaca fascicularis; conditions: in vivo
[11] = Apparent permeability across human Caco-2 cells

SMILES | pEC50 (Hepatitis C virus [1]) | pIC50 (Hepatitis C virus [2]) | half-life ([3]; liver microsomes) [h] | CC50 at 72 h [4] [µM] | other results
CC(C)[C@H]1C(O)=C(C2=NS(=O)(=O)c3c(O)cccc32)C(=O)N1Cc1ccccc1 | 4.33 | 6.33 | > 1 | > 33 | –
CC(C)[C@H]1C(O)=C(C2=NS(=O)(=O)c3c(OCC(N)=O)cccc32)C(=O)N1Cc1ccccc1 | 4.06 | 6.28 | > 1 | > 33 | –
CC(C)[C@H]1C(O)=C(C2=NS(=O)(=O)c3c(OCCC(N)=O)cccc32)C(=O)N1Cc1ccccc1 | 4.00 | 5.92 | – | > 33 | –
CC(C)(C)[C@H]1C(O)=C(C2=NS(=O)(=O)c3c(OCC(N)=O)cccc32)C(=O)N1Cc1ccc(F)c(Cl)c1 | 5.10 | 7.48 | > 1 | > 33 | –
CCOc1cccc2c1S(=O)(=O)N=C2C1=C(O)[C@H](C2CCCCC2)N(CCC(C)(C)C)C1=O | – | 5.40 | – | > 33 | –
CCOc1cccc2c1S(=O)(=O)N=C2C1=C(O)[C@H](C(C)(C)C)N(Cc2ccc(F)c(Cl)c2)C1=O | – | 6.12 | – | > 33 | half-life ([3]; microsomes): > 1 h
CC(C)[C@H]1C(O)=C(C2=NS(=O)(=O)c3c(OCC(=O)N4CCOCC4)cccc32)C(=O)N1Cc1ccccc1 | < 4.48 | 5.49 | > 1 | > 33 | –
CCOc1cccc2c1S(=O)(=O)N=C2C1=C(O)[C@H](C(C)C)N(CCC(C)(C)C)C1=O | – | 5.05 | – | > 33 | –
CC(C)(C)[C@H]1C(O)=C(C2=NS(=O)(=O)c3cc(NS(C)(=O)=O)ccc32)C(=O)N1Cc1ccc(F)c(Cl)c1 | 4.89 | 7.03 | > 1 | > 33 | –
CN(Cc1cccc2c1S(=O)(=O)N=C2C1=C(O)C2(CC2)N(Cc2ccc(F)c(Cl)c2)C1=O)S(C)(=O)=O | – | 6.21 | > 1 | > 33 | –
CC(C)[C@H]1C(O)=C(C2=NS(=O)(=O)c3c(OCC(=O)C(C)(C)C)cccc32)C(=O)N1Cc1ccccc1 | < 4.48 | 4.68 | – | > 33 | –
CC(C)(C)[C@H]1C(O)=C(C2=NS(=O)(=O)c3c(OCc4ncon4)cccc32)C(=O)N1Cc1ccc(F)c(Cl)c1 | 5.74 | 6.74 | > 1 | > 33 | –
CCOc1cccc2c1S(=O)(=O)N=C2C1=C(O)[C@H](C(C)(C)C)N(CCC(C)(C)C)C1=O | – | 5.82 | > 1 | > 33 | –
CC(C)(C)[C@H]1C(O)=C(C2=NS(=O)(=O)c3c(OCC#N)cccc32)C(=O)N1Cc1ccc(F)c(Cl)c1 | 6.15 | 7.15 | > 1 | > 33 | –
CC(C)[C@H]1C(O)=C(C2=NS(=O)(=O)c3c(OCC#N)cccc32)C(=O)N1Cc1ccccc1 | 4.92 | 5.80 | > 1 | > 33 | –
CCOc1cccc2c1S(=O)(=O)N=C2C1=C(O)[C@H](C(C)C)N(Cc2ccccc2)C1=O | 4.74 | 5.44 | > 1 | > 33 | –
CC(C)[C@H]1C(O)=C(C2=NS(=O)(=O)c3ccccc32)C(=O)N1Cc1ccccc1 | 4.62 | – | > 1 | > 33 | –
CN(Cc1cccc2c1S(=O)(=O)C=C2C1=C(O)[C@H](C(C)(C)C)N(CCC(C)(C)C)C1=O)S(C)(=O)=O | 5.24 | 6.04 | > 1 | > 33 | –
CC(C)(C)CCN1C(=O)C(C2=NS(=O)(=O)c3c(OCc4ncon4)cccc32)=C(O)[C@@H]1C(C)(C)C | 5.70 | 6.19 | 0.733 | > 33 | –
CC(C)(C)CCN1C(=O)C(C2=NS(=O)(=O)c3c(CNS(C)(=O)=O)cccc32)=C(O)[C@@H]1C(C)(C)C | 6.46 | 7.74 | – | > 33 | half-life ([3]; microsomes): > 1 h
CN(Cc1cccc2c1S(=O)(=O)N=C2C1=C(O)[C@H](C(C)(C)C)N(Cc2ccc(F)c(Cl)c2)C1=O)S(C)(=O)=O | 7.05 | 7.64 | > 1 | > 33 | Papp A→B [5]: 0.2 ×10⁻⁶ cm/s; Papp B→A [6]: 29 ×10⁻⁶ cm/s; AUC at 24 h [7]: 193 ng·h/mL; concentration at 12 h [8]: 3.1 ng/mL; bioavailability [10]: 4%; efflux ratio [9]: 132
CS(=O)(=O)NCc1cccc2c1S(=O)(=O)N=C2C1=C(O)C2(CC2)N(Cc2ccc(F)c(Cl)c2)C1=O | < 4.48 | 6.89 | – | > 33 | half-life ([3]; microsomes): > 1 h
CC(C)NCC(O)COc1cccc2ccccc12 (configuration not stated) [PROPRANOLOL] | – | – | – | – | Papp [11]: 10 ×10⁻⁶ cm/s

Further lines, with some results ahead:

pEC50 (Hepatitis C virus [1]) | pIC50 (Hepatitis C virus [2]) | half-life ([3]; liver microsomes) [h] | SMILES | CC50 at 72 h [4] [µM] | other results
4.96 | 6.70 | 0.8 | CC(C)(C)CCN1C(=O)C(C2=NS(=O)(=O)c3c(OCC(N)=O)cccc32)=C(O)[C@@H]1C(C)(C)C | > 33 | –
5.37 | 6.38 | 0.167 | CC(C)(C)CCN1C(=O)C(C2=NS(=O)(=O)c3ccccc32)=C(O)[C@@H]1C(C)(C)C | > 33 | Papp A→B [5]: 9.9 ×10⁻⁶ cm/s; Papp B→A [6]: 19 ×10⁻⁶ cm/s; AUC at 24 h [7]: 4680 ng·h/mL; concentration at 12 h [8]: 5 ng/mL; efflux ratio [9]: 2
7.15 | > 8.00 | > 1 | CC(C)(C)[C@H]1C(O)=C(C2=NS(=O)(=O)c3c(CNS(C)(=O)=O)cccc32)C(=O)N1Cc1ccc(F)c(Cl)c1 | > 33 | Papp A→B [5]: 0.1 ×10⁻⁶ cm/s; Papp B→A [6]: 15 ×10⁻⁶ cm/s; AUC at 24 h [7]: 38 ng·h/mL; concentration at 12 h [8]: 0.5 ng/mL; bioavailability [10]: 1%; efflux ratio [9]: 150
– | 5.80 | – | CCOc1cccc2c1S(=O)(=O)N=C2C1=C(O)[C@H](C(C)(C)C)N(Cc2cccc(Cl)c2)C1=O | > 33 | –
4.82 | 6.46 | > 1 | CC(C)[C@H]1C(O)=C(C2=NS(=O)(=O)c3c(OCc4ncon4)cccc32)C(=O)N1Cc1ccccc1 | > 33 | –
– | 5.29 | – | CCOc1cccc2c1S(=O)(=O)N=C2C1=C(O)[C@H](CC(C)C)N(CCC(C)(C)C)C1=O | > 33 | –
5.59 | 7.35 | > 1 | CC(C)(C)CCN1C(=O)C(C2=NS(=O)(=O)c3c(CCS(C)(=O)=O)cccc32)=C(O)[C@@H]1C(C)(C)C | > 33 | –
– | 6.39 | – | CC[C@@]1(C)C(O)=C(C2=NS(=O)(=O)c3c(CN(C)S(C)(=O)=O)cccc32)C(=O)N1Cc1ccc(F)c(Cl)c1 | > 33 | half-life ([3]; microsomes): > 1 h
5.19 | 6.62 | > 1 | CC(C)(C)CCN1C(=O)C(C2=CS(=O)(=O)c3c(CNS(C)(=O)=O)cccc32)=C(O)[C@@H]1C(C)(C)C | > 33 | –
– | 5.29 | – | CCOc1cccc2c1S(=O)(=O)N=C2C1=C(O)[C@H](C(C)(C)C)N(CCC(C)C)C1=O | > 33 | –
– | 6.34 | > 1 | CN(Cc1cccc2c1S(=O)(=O)N=C2C1=C(O)C(C)(C)N(Cc2ccc(F)c(Cl)c2)C1=O)S(C)(=O)=O | > 33 | –
– | 4.89 | > 1 | CC(C)[C@@]1(C)C(O)=C(C2=CS(=O)(=O)c3c(CN(C)S(C)(=O)=O)cccc32)C(=O)N1CCC(C)(C)C | > 33 | –
– | 5.54 | – | CCOc1cccc2c1S(=O)(=O)N=C2C1=C(O)C(c2cccs2)N(CCC(C)(C)C)C1=O (racemic) | > 33 | –
